pIC50: −log10 of the molar value. Counter-ions that a name gives are not always drawn.
What was measured:
[1] = system: isolated rat distal colon; assay: Effect on isolated rat distal colon (spontaneous contractions, organ bath); assay type: cell-based; settings: 0.5 h, isolated distal colon strip of male SD rats, Tyrode solution 37° C., observed over 30 minutes
Procedure: Effect on isolated rat distal colon:
Male SD rats (180~230 g) were used. Animals were fasted for 24 hours prior to experiment. Distal colon was removed immediately after sacrifice and placed in an organ bath containing 25 ml Tyrode solution aerating with 95% O2, 5% CO2 at 37° C. The strip was mounted under 0.5 g tension and spontaneous contractions were recorded isometrically. After the mobility was of a uniform size, test compound was added to an organ bath and the contractions were observed over a 30 minutes period. Effect of test compound was calculated by comparing contractions before and after test compound.

[2] = system: isolated non-pregnant rat uterus; assay: Effect on isolated non-pregnant rat uterus (spontaneous contractions, organ bath); assay type: cell-based; settings: 20 min, isolated uterine horn strip of estradiol-treated female SD rats, Locke solution 37° C., observed over 20 minutes
Procedure: Effect on isolated non-pregnant rat uterus:
Female SD rats (150~180 g) were used. 48 and 24 hours prior to use, rats were given estradiol (ovahormon benzoat: Trademark, Teikoku Hormone Mfg. Co., Ltd.) subcutaneously at a dose of 40 μg/rat to induce oestrus. The animals were killed and uterine horns were removed. Each strip was placed in an organ bath containing 25 ml Locke solution aerating with 95% O2, 5% CO2 at 37° C. under 1 g tension. Contractions were recorded isometrically. After the spontaneous contractions were of a uniform size, test compound was added to organ bath. The motility was observed over a 20 minutes period. Effect of test compound was calculated by comparing contractions before and after test compound.

| SMILES | pIC50 [1] | pIC50 [2] |
| --- | --- | --- |
| CCOC(=O)COc1ccc2c(c1)CC(NC[C@H](O)c1cccc(Cl)c1)CCC2 (mixture of isomers) [Example 1, (1R,6'R)- and (1R,6'S)-2-[(3-ethoxycarbonyl-methoxy-6,7,8,9-tetrahydro-5H-benzocyclohepten-6-yl)amino]-1-(3-chlorophenyl)ethanol hydrochloride] | 9.17 | 6.70 |
| CCOC(=O)COc1ccc2c(c1)C[C@@H](NC[C@H](O)c1cccc(Cl)c1)CCC2 [2-3), (1R,6'S)-2-[(3-Ethoxycarbonylmethoxy-6,7,8,9-tetrahydro-5H-benzocyclohepten-6-yl)amino]-1-(3-chlorophenyl)ethanol hydrochloride] | 9.08 | 6.36 |
| CCOC(=O)COc1ccc2c(c1)C[C@H](NC[C@H](O)c1cccc(Cl)c1)CCC2 [3-2), (1R,6'R)-2-[(3-Ethoxycarbonylmethoxy-6,7,8,9-tetrahydro-5H-benzocyclohepten-6-yl)amino]-1-(3-chlorophenyl)ethanol] | 9.18 | 6.62 |
